Laboratory results taken from patent US8188101B2 (AstraZeneca AB, priority 2008, dated 2012).

Tested on: Aβ42 release
Experiment: Aβ release in cells stably expressing APPswe, Meso Scale Discovery electrochemiluminescence assay
Assay type: cell-based, Human
Conditions: Homo sapiens, SH-SY5Y, HEK or SH-SY5Y cells stably expressing APPswe, 4-6 hours incubation with test compound
Outline: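 HEK or SH-SY5Y cells stably expressing APPswe, plated 15-24 h, then exposed to compound (diluted ×200 into fresh medium) for 4-6 h at 37 °C. Secreted Aβ42 in medium quantified by Meso Scale Discovery electrochemiluminescence with specific antibodies; cytotoxicity checked by cellular ATP content.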

IC50 | Compound
316 nM | Cc1cc(C(C)c2ccccc2)nc(Nc2ccc(-n3ccnc3C)cc2)n1 (stereo not shown) [Example 87, 4-Methyl-N-(4-(2-methyl-1H-imidazol-1-yl)phenyl)-6-(1-phenylethyl)pyrimidin-2-amine]
63.1 nM | COc1cc(Nc2nc3c(c(Cc4ccccc4)n2)CNCC3)ccc1-n1cnc(C)c1 [Example 106, 4-Benzyl-N-(3-methoxy-4-(4-methyl-1H-imidazol-1-yl)phenyl)-5,6,7,8-tetrahydropyrido[4,3-d]pyrimidin-2-amine]
158 nM | CCCN1CCc2nc(Nc3ccc(-c4cnn(C)c4)cc3)nc(N(CCO)c3ccccc3)c2C1 [Example 39, 2-((2-(4-(1-Methyl-1H-pyrazol-4-yl)phenylamino)-6-propyl-5,6,7,8-tetrahydropyrido[4,3-d]pyrimidin-4-yl)(phenyl)amino)ethanol]
10000 nM | Cc1nccn1-c1ccc(Nc2nc3c(c(CC4CCOCC4)n2)COCC3)cc1 [Example 67, N-(4-(2-Methyl-1H-imidazol-1-yl)phenyl)-4-((tetrahydro-2H-pyran-4-yl)methyl)-7,8-dihydro-5H-pyrano[4,3-d]pyrimidin-2-amine]
794 nM | O=C(CO)N1CCc2nc(Nc3ccc(-c4cnco4)cc3)nc(N(CCO)c3ccccc3)c2C1 [Example 19, 2-Hydroxy-1-(4-((2-hydroxyethyl)(phenyl)amino)-2-(4-(oxazol-5-yl)phenylamino)-7,8-dihydropyrido[4,3-d]pyrimidin-6(5H)-yl)ethanone]
1260 nM | Cc1nccn1-c1ccc(Nc2nc3c(c(NCC4CCOCC4)n2)CN(C)CC3)cc1 [Example 79, 6-Methyl-N2-(4-(2-methyl-1H-imidazol-1-yl)phenyl)-N4-((tetrahydro-2H-pyran-4-yl)methyl)-5,6,7,8-tetrahydropyrido[4,3-d]pyrimidine-2,4-diamine]
100 nM | COc1cccc(Cc2nc(Nc3ccc(-n4cnc(C)c4)c(OC)c3)nc3c2COCC3)c1 [Example 100, N-(3-Methoxy-4-(4-methyl-1H-imidazol-1-yl)phenyl)-4-(3-methoxybenzyl)-7,8-dihydro-5H-pyrano[4,3-d]pyrimidin-2-amine]
5010 nM | CC(=O)N1CCc2nc(Nc3ccc(-c4cnco4)cc3)nc(N(C)Cc3ccccn3)c2C1 [Example 92, 1-(4-(Methyl(pyridin-2-ylmethyl)amino)-2-(4-(oxazol-5-yl)phenylamino)-7,8-dihydropyrido[4,3-d]pyrimidin-6(5H)-yl)ethanone]
1000 nM | CC(=O)N1CCc2nc(Nc3ccc(-c4cnco4)cc3)nc(N3c4ccccc4C[C@H]3CO)c2C1 [Example 30]
631 nM | CC(=O)N1CCc2nc(Nc3ccc(-c4cnco4)cc3)nc(N(C)c3ccc(F)cc3)c2C1 [Example 89, 1-(4-((4-Fluorophenyl)(methyl)amino)-2-(4-(oxazol-5-yl)phenylamino)-7,8-dihydropyrido[4,3-d]pyrimidin-6(5H)-yl)ethanone]
